# BindingDB's records for doi:10.1021/jm00073a012 (Glaxo Group Research, 1993)
# Molecular target: T1, Dimer of Gag-Pol polyprotein [489-587] (Human immunodeficiency virus 1, UniProt P12497)
# T1 construct: 489-587
# Assay: Protease Inhibition Assay
# Details: pH 6; 37 °C
# Procedure: IC50 values were obtained by assaying the enzyme against the synthetic substrate peptide KQGTVSFNFPQIT, which was tritiated at the proline residue, and then was coupled via its N-terminal lysine to an Affi-gel bead mixture. The assay was performed in 96-well microtiter filtration plates. The plates containing HIV protease and radiolabeled substrate beads were incubated with or without inhibitor. After filtration, radioactivity was measured using an LKB 1205 Microbeta liquid scintillation counter. IC50 determinations were performed in duplicate at each concentration with mean values used for data analysis.
row,SMILES,IC50
1,"C[C@H](Cc1ccccc1)NC(=O)[C@@H]1N[C@@H]([C@H](NC(=O)Cc2ccccc2)C(=O)NCc2ccccc2)SC1(C)C [(2R,4S)-2-[(R)-(benzylcarbamoyl)(1-phenylacetamido)methyl]-5,5-dimethyl-N-[(2R)-1-phenylpropan-2-yl]-1,3-thiazolidine-4-carboxamide]",> 180 µM
2,"C[C@@H](Cc1ccccc1)NC(=O)[C@@H]1N[C@@H]([C@H](NC(=O)Cc2ccccc2)C(=O)NCc2ccccc2)SC1(C)C [(2R,4S)-2-[(R)-(benzylcarbamoyl)(1-phenylacetamido)methyl]-5,5-dimethyl-N-[(2S)-1-phenylpropan-2-yl]-1,3-thiazolidine-4-carboxamide]",> 180 µM
3,"CCC(C)C(CO)NC(=O)[C@@H]1N[C@@H]([C@H](NC(=O)Cc2ccccc2)C(=O)NCc2ccccc2)SC1(C)C (stereo partly drawn) [(2R,4S)-2-[(R)-(benzylcarbamoyl)(1-phenylacetamido)methyl]-N-(1-hydroxy-3-methylpentan-2-yl)-5,5-dimethyl-1,3-thiazolidine-4-carboxamide]",> 0.54 µM
4,"CC1(C)S[C@H]([C@H](NC(=O)Cc2ccccc2)C(=O)NCc2ccccc2)N[C@H]1C(=O)NCCNC(=O)[C@@H]1N[C@@H]([C@H](NC(=O)Cc2ccccc2)C(=O)NCc2ccccc2)SC1(C)C [(2R,4S)-2-[(R)-(benzylcarbamoyl)(1-phenylacetamido)methyl]-N-(2-{[(2R,4S)-2-[(R)-(benzylcarbamoyl)(1-phenylacetamido)methyl]-5,5-dimethyl-1,3-thiazolidin-4-yl]formamido}ethyl)-5,5-dimethyl-1,3-thiazolidine-4-carboxamide]",0.0009 µM
5,"CC(C)[C@H](CO)NC(=O)[C@@H]1N[C@@H]([C@H](NC(=O)Cc2ccccc2)C(=O)NCc2ccccc2)SC1(C)C [(2R,4S)-2-[(R)-(benzylcarbamoyl)(1-phenylacetamido)methyl]-N-[(2R)-1-hydroxy-3-methylbutan-2-yl]-5,5-dimethyl-1,3-thiazolidine-4-carboxamide]",> 4.7 µM
6,"CC(C)C[C@H](CO)NC(=O)[C@@H]1N[C@@H]([C@H](NC(=O)Cc2ccccc2)C(=O)NCc2ccccc2)SC1(C)C [(2R,4S)-2-[(R)-(benzylcarbamoyl)(1-phenylacetamido)methyl]-N-[(2R)-1-hydroxy-4-methylpentan-2-yl]-5,5-dimethyl-1,3-thiazolidine-4-carboxamide]",> 4.6 µM
7,"C[C@H](CO)NC(=O)[C@@H]1N[C@@H]([C@H](NC(=O)Cc2ccccc2)C(=O)NCc2ccccc2)SC1(C)C [(2R,4S)-2-[(R)-(benzylcarbamoyl)(1-phenylacetamido)methyl]-N-[(2R)-1-hydroxypropan-2-yl]-5,5-dimethyl-1,3-thiazolidine-4-carboxamide]",> 20 µM
8,"CC1(C)S[C@H]([C@H](NC(=O)Cc2ccccc2)C(=O)NCc2ccccc2)N[C@H]1C(=O)N[C@H](CO)Cc1ccccc1 [(2R,4S)-2-[(R)-(benzylcarbamoyl)(1-phenylacetamido)methyl]-N-[(2S)-1-hydroxy-3-phenylpropan-2-yl]-5,5-dimethyl-1,3-thiazolidine-4-carboxamide]",> 170 µM
9,"CC1(C)S[C@H]([C@H](NC(=O)Cc2ccccc2)C(=O)NCc2ccccc2)N[C@H]1C(N)=O [[2R-[2a(R*),4B]]-4-Carbamoyl-5,5-dimethyl-a-[(phenylacetyl)amino]-N-(phenylmethyl)-2-thiazolidineacetamide]",> 230 µM
